The test system of assay [1] is Venturia inaequalis. The experiment in a line: Activity against apple scab in-vitro (VII). It counts as cell-based. Particulars: 10 ppm, 10 days, 20° C., mycelial growth. A digest of the protocol:
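V. inaequalis propagules (5×10^4/ml, malt agar-grown) were exposed in half-strength PDB to 10 ppm final test compound delivered in acetone. Growth was scored after incubation for 10 days at 20° C, as a rating relative to untreated or diluent-sprayed controls.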

The test system of assay [2] is Pseudocercosporella herpotrichoides. As to the kind of experiment: Activity against wheat eyespot in-vitro (PHI). The class given is cell-based. Particulars: 10 ppm, 10 days, 20° C., mycelial growth. A digest of the protocol:
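Mycelial growth was scored after 10 days at 20 °C against untreated or diluent controls. The broth was half-strength potato dextrose, holding 10 ppm test compound (from acetone) and 5×10^4 fragments/ml of the eyespot fungus.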

For assay [3], the system named is Erysiphe graminis f.sp. hordei. As to the kind of experiment: Activity against barley powdery mildew, direct therapeutic (EGT). The class given is in vivo. Particulars: direct therapeutic foliar spray, 600 ppm, up to 7 days. Put shortly:
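A curative spray at 600 ppm was applied to single-leaf Golden Promise barley inoculated with powdery mildew conidia the previous day. After up to 7 days at 18 °C and 40% humidity, disease control was rated from percent leaf area sporulating relative to untreated or diluent-sprayed controls.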

The subject of assay [4] is Alternaria solani. The experiment in a line: Activity against tomato early blight (AS). As to conditions: Table VI; tomato seedlings, contact prophylactic foliar spray, 4 days. It counts as in vivo. A digest of the protocol: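 Plants were challenged with A. solani conidia (10^4 spores/ml) 24 h after a protective foliar spray of compound in 50:50 acetone/water plus 0.04% Tween 20. Held humid at 21° C for 4 days, then percent leaf area with lesions was scored as a rating relative to controls.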

The test system of assay [5] is Botrytis cinerea. As to the kind of experiment: Direct protectant activity against broad bean grey mould (BCB). The class given is in vivo. As to conditions: direct protectant foliar spray, 600 ppm, 4 days. A digest of the protocol: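 Protectant foliar test: lesion coverage assessed 4 days after inoculation and rated relative to untreated or diluent-sprayed plants. Compound applied at 600 ppm to cv The Sutton leaves 24 h before 10^6 conidia/ml suspension; incubation at 22 °C in high humidity.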

The test system of assay [6] is Erysiphe graminis f.sp. hordei. The experiment in a line: Direct protectant activity against barley powdery mildew (EGP). As to conditions: direct protectant foliar spray, 8 days. The class given is in vivo. A digest of the protocol: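 Rating reflects percentage of leaf area with sporulation compared with untreated or diluent-sprayed controls. Protectant spray was applied to single-leaf barley (cv Golden Promise) 24 h before conidia inoculation. Plants were kept at 18 °C and 40% RH throughout, with 8 days of disease development.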

In assay [7] the test system is Plasmopara viticola. The experiment in a line: Antisporulant activity against vine downy mildew (PVA). It counts as in vivo. Particulars: vine leaves, antisporulant foliar spray, 600 ppm, 750 l/ha. A digest of the protocol: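 Cabernet Sauvignon vines (~8 cm) inoculated on lower leaf surfaces with 5×10^4 zoosporangia/ml, held 24 h at 21° C high humidity then 24 h glasshouse. Infected leaves sprayed underside with 600 ppm compound in 1:1 water/acetone, 0.04% Tween 20, 750 l/ha; 96 h glasshouse, 24 h humidity. Sporulating leaf area rated versus control.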

The subject of assay [8] is Phytophthora infestans. The class given is in vivo. As to conditions: tomato, direct protectant foliar spray.
Assay [9] relates to Pyricularia oryzae. It counts as in vivo. As to conditions: rice seedlings, direct therapeutic foliar spray, 600 ppm, 4-5 days.
Assay [10] deals with Leptosphaeria nodorum. As to the kind of experiment: Activity against wheat leafspot (LN). The class given is in vivo. As to conditions: direct therapeutic foliar spray, 600 ppm, 6-8 days. A digest of the protocol: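 Therapeutic foliar spray: compound at 600 ppm applied to single-leaf wheat (cv Norman) 24 h after inoculation with 1.5×10^6 conidia/ml. Disease control scored after 6-8 days at 22° C and 70% humidity as lesions per leaf versus untreated or diluent-sprayed controls.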

For assay [11], the system named is Rhizoctonia solani. As to the kind of experiment: Activity against Rhizoctonia in-vitro (RSI). The class given is cell-based. Particulars: 10 ppm, 10 days, 20° C., mycelial growth. A digest of the protocol:
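Compound at a final 10 ppm (acetone vehicle) in half-strength PDB, inoculated with 5×10^4 fragments/ml of shaken-culture R. solani mycelium. After incubation at 20° C for 10 days, growth scored as a rating versus untreated or diluent-treated controls.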

With `CC(C)(C)C1CCC2(CC1)CC(N1CCCC3CCCCC31)CO2` (stereo not shown) [Compound 116], the “disease control rating VII” value in [1] was 2 (greater than 80% disease control). Besides, the “disease control rating PHI” value in assay [2] is 0 (less than 50% disease control). Besides, in assay [3], the “disease control rating EGT” value is 2 (greater than 80% disease control). In assay [4], the “disease control rating AS” value is 0 (less than 50% disease control). In assay [5], the “disease control rating BCB” value is on record as 1 (about 50-80% disease control). In assay [6], the “disease control rating EGP” value is recorded as 2 (greater than 80% disease control). The “disease control rating PVA” value in [7] was 0 (less than 50% disease control). In [8], the “disease control rating PIP” value was 0 (less than 50% disease control). In addition, the “disease control rating PO” value in [9] was 0 (less than 50% disease control). Further, the “disease control rating LN” value in assay [10] is given as 0 (less than 50% disease control). Further, the “disease control rating RSI” value in assay [11] was 0 (less than 50% disease control).

Consider `CN(CCC1CCCCC1)C1COC2(CCC(C(C)(C)C)CC2)C1` (stereo not shown) [Compound 117], for which the “disease control rating VII” value in assay [1] is on record as 1 (about 50-80% disease control). The “disease control rating PHI” value in assay [2] is recorded as 1 (about 50-80% disease control). Moreover, in assay [3], the “disease control rating EGT” value is listed as 2 (greater than 80% disease control). For the same compound, the “disease control rating AS” value in assay [4] was 2 (greater than 80% disease control). The “disease control rating BCB” value in [5] is recorded as 0 (less than 50% disease control). For the same compound, the “disease control rating EGP” value in [6] is given as 2 (greater than 80% disease control). In assay [7], the “disease control rating PVA” value was 0 (less than 50% disease control). For the same compound, the “disease control rating PIP” value in assay [8] is listed as 0 (less than 50% disease control). Also, the “disease control rating PO” value in [9] is recorded as 0 (less than 50% disease control). For the same compound, in [10], the “disease control rating LN” value is recorded as 0 (less than 50% disease control). For the same compound, the “disease control rating RSI” value in assay [11] is recorded as 1 (about 50-80% disease control).

Consider `CCN(CCC1CCCCC1)C1COC2(CCC(C(C)(C)C)CC2)C1` (stereo not shown) [Compound 118], for which the “disease control rating VII” value in assay [1] is 1 (about 50-80% disease control). For the same compound, the “disease control rating PHI” value in assay [2] is 1 (about 50-80% disease control). For the same compound, the “disease control rating EGT” value in assay [3] is on record as 2 (greater than 80% disease control). Further, the “disease control rating AS” value in [4] was 0 (less than 50% disease control). In addition, the “disease control rating BCB” value in [5] was 0 (less than 50% disease control). The “disease control rating EGP” value in [6] was 2 (greater than 80% disease control). In addition, the “disease control rating PVA” value in [7] is 2 (greater than 80% disease control). Further, the “disease control rating PIP” value in [8] was 0 (less than 50% disease control). In addition, the “disease control rating PO” value in assay [9] is given as 0 (less than 50% disease control). Besides, in [10], the “disease control rating LN” value was 0 (less than 50% disease control). The “disease control rating RSI” value in [11] was 1 (about 50-80% disease control).

Turning to `CCCN(CCC1CCCCC1)C1COC2(CCC(C(C)(C)C)CC2)C1` (stereo not shown) [Compound 119], in assay [1], the “disease control rating VII” value was 1 (about 50-80% disease control). In addition, in assay [2], the “disease control rating PHI” value is 1 (about 50-80% disease control). Further, the “disease control rating EGT” value in [3] is given as 2 (greater than 80% disease control). Also, the “disease control rating AS” value in assay [4] is on record as 0 (less than 50% disease control). For the same compound, the “disease control rating BCB” value in assay [5] is on record as 0 (less than 50% disease control). Moreover, the “disease control rating EGP” value in assay [6] is 2 (greater than 80% disease control). The “disease control rating PVA” value in assay [7] is 0 (less than 50% disease control). Moreover, the “disease control rating PIP” value in [8] was 0 (less than 50% disease control). Besides, the “disease control rating PO” value in assay [9] is reported as 0 (less than 50% disease control). The “disease control rating LN” value in assay [10] was 0 (less than 50% disease control). Besides, the “disease control rating RSI” value in assay [11] is 0 (less than 50% disease control).

In the case of `CC1(CNC2COC3(CCC(C(C)(C)C)CC3)C2)CCCCC1` (stereo not shown) [Compound 120], in [1], the “disease control rating VII” value is 1 (about 50-80% disease control). In assay [2], the “disease control rating PHI” value is 0 (less than 50% disease control). Moreover, in [3], the “disease control rating EGT” value is given as 2 (greater than 80% disease control). The “disease control rating AS” value in [4] was 0 (less than 50% disease control). Also, the “disease control rating BCB” value in [5] is 1 (about 50-80% disease control). Moreover, the “disease control rating EGP” value in [6] is reported as 2 (greater than 80% disease control). For the same compound, the “disease control rating PVA” value in [7] was 0 (less than 50% disease control). Also, the “disease control rating PIP” value in assay [8] is on record as 0 (less than 50% disease control). The “disease control rating PO” value in [9] was 0 (less than 50% disease control). Also, the “disease control rating LN” value in assay [10] is given as 0 (less than 50% disease control). Moreover, the “disease control rating RSI” value in [11] is reported as 1 (about 50-80% disease control).

In the case of `CC(C)CN(C)C1COC2(CCC(C(C)(C)C)CC2)C1` (stereo not shown) [Compound 121], the “disease control rating VII” value in assay [1] is on record as 0 (less than 50% disease control). Also, in [2], the “disease control rating PHI” value is on record as 0 (less than 50% disease control). Also, the “disease control rating EGT” value in [3] is 2 (greater than 80% disease control). In addition, the “disease control rating AS” value in assay [4] is 0 (less than 50% disease control). Also, in assay [5], the “disease control rating BCB” value is listed as 0 (less than 50% disease control). Moreover, the “disease control rating EGP” value in [6] is 2 (greater than 80% disease control). In addition, the “disease control rating PVA” value in assay [7] is reported as 0 (less than 50% disease control). For the same compound, in assay [8], the “disease control rating PIP” value is on record as 0 (less than 50% disease control). The “disease control rating PO” value in [9] is listed as 0 (less than 50% disease control). Further, the “disease control rating LN” value in [10] is given as 0 (less than 50% disease control). Besides, the “disease control rating RSI” value in [11] was 0 (less than 50% disease control).

`CC(C)N(CCC1CCCCC1)C1COC2(CCC(C(C)(C)C)CC2)C1` (stereo not shown) [Compound 122]: the “disease control rating VII” value in assay [1] is 0 (less than 50% disease control). For the same compound, the “disease control rating PHI” value in [2] is on record as 0 (less than 50% disease control). The “disease control rating EGT” value in assay [3] is on record as 2 (greater than 80% disease control). Further, in assay [4], the “disease control rating AS” value is 0 (less than 50% disease control). For the same compound, the “disease control rating BCB” value in assay [5] is recorded as 0 (less than 50% disease control). In addition, in assay [6], the “disease control rating EGP” value is 2 (greater than 80% disease control). In assay [7], the “disease control rating PVA” value is listed as 0 (less than 50% disease control). Further, the “disease control rating PIP” value in assay [8] is 0 (less than 50% disease control). For the same compound, in assay [9], the “disease control rating PO” value is 2 (greater than 80% disease control). Besides, in assay [10], the “disease control rating LN” value was 0 (less than 50% disease control). In addition, the “disease control rating RSI” value in assay [11] was 0 (less than 50% disease control).

Regarding `CCCN(CC(C)C)C1COC2(CCC(C(C)(C)C)CC2)C1` (stereo not shown) [Compound 123], the “disease control rating VII” value in [1] is on record as 0 (less than 50% disease control). The “disease control rating PHI” value in [2] is 0 (less than 50% disease control). In addition, the “disease control rating EGT” value in assay [3] is 2 (greater than 80% disease control). Moreover, the “disease control rating AS” value in [4] is recorded as 0 (less than 50% disease control). Besides, the “disease control rating BCB” value in [5] is given as 0 (less than 50% disease control). Further, the “disease control rating EGP” value in assay [6] is 2 (greater than 80% disease control). In assay [7], the “disease control rating PVA” value is listed as 0 (less than 50% disease control). Also, in [8], the “disease control rating PIP” value was 0 (less than 50% disease control). The “disease control rating PO” value in assay [9] is on record as 1 (about 50-80% disease control). Moreover, the “disease control rating LN” value in [10] is 0 (less than 50% disease control). For the same compound, the “disease control rating RSI” value in [11] was 0 (less than 50% disease control).

The values are drawn from patent US5591741A, “Fungicidal spiroheterocyclic derivatives” (American Cyanamid Company, priority 1993, dated 1997).
